In US6057311A, “Benzodiazonine derivatives binding to cholecystokinin or gastrin receptors” (James Black Foundation Limited, priority 1996, dated 2000):

What was measured:
CCKB receptor = molecular target: T1, CCKB receptor (Mus musculus, UniProt P56481); experiment: radioligand binding assay at the CCKB receptor in mouse cortical membranes ([125I]-CCK8S); settings: [125I]-CCK8S 200 pM, 150 min at 21±3° C.; for Ki: pH 7.2, read-out: pKi (Mouse cortex) (converted); for pKi (Mouse cortex): pH 7.2
T1 construct: The cortex was dissected, weighed and homogenised in 40 ml ice-cold buffer; tissue Charles River (animals); host or cells: cerebral cortex of male CD1 mice, membranes
T1 sequence (P56481 1-453): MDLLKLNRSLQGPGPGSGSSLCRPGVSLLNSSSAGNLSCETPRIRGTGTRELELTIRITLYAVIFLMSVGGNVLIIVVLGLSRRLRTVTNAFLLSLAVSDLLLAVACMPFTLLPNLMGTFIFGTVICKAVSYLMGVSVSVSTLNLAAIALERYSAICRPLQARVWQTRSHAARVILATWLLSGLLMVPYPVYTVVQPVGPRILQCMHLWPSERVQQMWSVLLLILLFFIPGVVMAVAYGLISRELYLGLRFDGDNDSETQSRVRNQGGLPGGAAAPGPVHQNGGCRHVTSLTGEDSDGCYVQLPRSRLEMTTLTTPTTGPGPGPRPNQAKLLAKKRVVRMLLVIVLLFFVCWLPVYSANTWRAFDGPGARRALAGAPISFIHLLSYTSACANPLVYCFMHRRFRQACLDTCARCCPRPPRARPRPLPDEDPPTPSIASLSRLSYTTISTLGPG
Protocol: The compounds of the examples were tested for binding at the CCKB receptor in mouse cortical membranes by means of a radioligand binding assay. The procedure was as follows:
The whole brains from male mice (CD1 22-25 g; Charles River) were removed and placed in ice-cold buffer (pH7.2@21±3° C.) of the following composition (mM); 10 HEPES, 130 NaCl, 4.7 KCl, 5 MgCl2, 1 EDTA and containing 0.25 g.1^-1 bacitracin. The cortex was dissected, weighed and homogenised in 40 ml ice-cold buffer using a Teflon-in-glass homogeniser. The homogenate was centrifuged at 39,800 g for 20 min at 4° C., the supernatant discarded and the pellet resuspended by homogenisation in fresh buffer. The homogenate was recentrifuged (39,800 g; 20 min @4° C.) and the final pellet was resuspended in HEPES buffer to give a tissue concentration of 2 mg.ml^-1 (original wet weight).
The membranes (400 μl) were incubated for 150 min at 21±3° C. in a final volume of 0.5 ml with HEPES buffer containing [^125 I]-CCK8S (0.05 ml; 200 pM NEN 2200 Ci.mmol^-1) and competing compound. Total and non-specific binding of [^125 I]-CCK8S were defined using 0.05 ml of buffer and 0.05 ml of […] L-365,260, respectively. The assay was terminated by rapid filtration through pre-soaked Whatman GF/B filters using a Brandell Cell harvester. The filters were washed (3×3 ml) with ice-cold 50 mM Tris-HCl (pH7.4@4° C.) and bound radioactivity determined by counting (1 min.) in a gamma-counter.

CCKA = molecular target: T2, CCKA (Cavia porcellus, UniProt Q63931); experiment: CCKA binding assay, guinea pig pancreas membranes ([125I]-CCK8(S)); settings: [125I]-CCK8(S) 200 pM, 0.375 μM PD134,308, 150 min at 21±3° C., pH 7.2, read-out: pKi (Guinea pig pancreas) (converted)
T2 construct: The pancreatata were removed from male guinea-pigs; from tissue; host or cells: pancreas of male Dunkin Hartley guinea pigs, membranes
T2 sequence (Q63931 1-430): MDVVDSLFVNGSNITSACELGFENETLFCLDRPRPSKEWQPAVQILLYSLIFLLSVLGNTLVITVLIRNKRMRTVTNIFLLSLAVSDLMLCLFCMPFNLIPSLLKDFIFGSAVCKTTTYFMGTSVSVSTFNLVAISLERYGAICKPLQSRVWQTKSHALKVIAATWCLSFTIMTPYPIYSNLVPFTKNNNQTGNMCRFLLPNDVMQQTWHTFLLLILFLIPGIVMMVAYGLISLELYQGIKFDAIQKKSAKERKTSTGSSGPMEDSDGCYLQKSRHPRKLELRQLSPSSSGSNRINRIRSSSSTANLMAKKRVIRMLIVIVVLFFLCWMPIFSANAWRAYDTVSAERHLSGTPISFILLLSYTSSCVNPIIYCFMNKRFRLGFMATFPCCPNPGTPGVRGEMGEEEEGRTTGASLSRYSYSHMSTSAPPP
Protocol: The compounds of the examples were also tested in a CCKA binding assay as follows:
The pancreatata were removed from male guinea-pigs (200-300 g; Dunkin Hartley) and placed in ice-cold HEPES buffer (pH 7.2@21±3° C.). The pancreatata were homogenised in 40 ml ice-cold HEPES buffer using a polytron (Brinkmann, PT10, setting 10) 4×1 second. The homogenate was centrifuged at 39,800 g for 15 min at 4° C. The supernatant was discarded and the pellet re-suspended using a Teflon-in-glass homogeniser in 20 volumes of fresh buffer and re-centrifuged as above. The final pellet was re-suspended using a Teflon-in-glass homogeniser to a tissue concentration of 1 mg.ml^-1 (original wet weight), and filtered through 500 μm pore-size Nytex mesh.
The membranes (400 μl; containing 0.375 μM PD134,308) were incubated for 150 minutes at 21±3° C. in a final volume of 0.5 ml with HEPES buffer containing [^125 I]-CCK8 (S) (50 μl; 200 pM) and competing compound. Total and non-specific binding of [^125 I]-CCK8 (S) were defined using 50 μl of buffer and 50 μl of 100 nM L-364,718 respectively. The assay was terminated by rapid filtration through pre-soaked Whatman GF/B filters using a Brandell Cell Harvester. The filters were washed (3×3 ml) with ice-cold 50 mM Tris HCl (pH 7.4 at 4° C.) and bound radioactivity was determined by counting (1 min) in a gamma counter.

Compound | Ki (CCKB receptor) [µM] | also measured
CC1CCN(C(=O)Nc2cccc(C(=O)O)c2)CC(=O)N(Cc2ccccc2)c2ccccc21 (centres unmarked) [Example 48, 1-benzyl-7-methyl-4-(3-carboxyphenyl)carbamyl-2-oxo-2,3,4,5,6,7-hexahydro-1H-1,4-benzodiazonine] | – | pKi (Mouse cortex) (CCKB receptor): 4.8
CC(=O)N1[C@H](CC23CC4CC(CC(C4)C2)C3)C(=O)N(Cc2ccccc2F)c2ccccc2C(=O)C[C@H]1C(=O)NCc1nn[nH]n1 [Example 68, (3R,5S)-4-acetyl-3-(1-adamantyl)methyl-1-(2-fluorobenzyl)-5-(5-tetrazolo)methylaminocarbonyl-2,7-dioxo-2,3,4,5,6,7-hexahydro-1H-1,4-benzodiazonine] | – | pKi (Mouse cortex) (CCKB receptor): 6.8
CC(=O)N1[C@@H](C(=O)NCC(=O)O)CC(=O)c2ccccc2N(Cc2ccccc2F)C(=O)[C@@H]1CC12CC3CC(CC(C3)C1)C2 [Example 73, (3S ,5R)-4-acetyl-3-(1-adamantyl)methyl-1-(2-fluorobenzyl)-5-carboxymethylaminocarbonyl-2,7-dioxo-2,3,4,5,6,7-hexahydro-1H-1,4-benzodiazonine] | 2.51 | –
CC(=O)N1[C@H](CC23CC4CC(CC(C4)C2)C3)C(=O)N(Cc2ccccc2)c2ccccc2C(=O)C[C@H]1C(=O)NCc1nn[nH]n1 [Example 67, (3R,5S)-4-acetyl-3-(1-adamantyl)methyl-1-benzyl-5-tetrazolomethylaminocarbonyl-2,7-dioxo-2,3,4,5,6,7-hexahydro-1H-1,4-benzodiazonine] | 0.158 | –
COc1ccc(CN2C(=O)[C@@H](CC34CC5CC(CC(C5)C3)C4)N(C(C)=O)[C@H](C(=O)NCC(=O)O)CC(=O)c3ccccc32)cc1 [Example 75, (3R,5S)-4-acetyl-3-(1-adamantyl)methyl-1-(4-methoxybenzyl)-5-carboxymethylaminocarbonyl-2,7-dioxo-2,3,4,5,6,7-hexahydro-1H-1,4-benzodiazonine] | – | pKi (Mouse cortex) (CCKB receptor): 5.9
(+/-)-trans-4-acetyl-3-(1-adamantyl)methyl-1-benzyl-5-carboxymethylaminocarbonyl-2,7-dioxo-9-methyl-2,3,4,5,6,7-hexahydro-1H-1,4-benzodiazonine [Example 70] | – | pKi (Mouse cortex) (CCKB receptor): 6.9
Cc1cccc(NC(=O)N2CCCc3ccccc3N(Cc3ccccc3)C(=O)C2)c1 [Example 54, 1-benzyl-4-(3-methylphenyl)carbamyl-2-oxo-2,3,4,5,6,7-hexahydro-1H-1,4-benzodiazonine] | 3.98 | –
CC(=O)N1[C@H](CC23CC4CC(CC(C4)C2)C3)C(=O)N(Cc2ccccc2F)c2ccccc2C(=O)C[C@H]1C(=O)N[C@@H](C)C(=O)NS(C)(=O)=O [Example 66, (3R,5S)-4-acetyl-3-(1-adamantyl)methyl-1-(2-fluorobenzyl)-5-[(1S)-methanesulphonamidocarboxy]ethylaminocarbonyl-2,7-dioxo-2,3,4,5,6,7-hexahydro-1H-1,4-benzodiazonine] | 0.501 | –
CCC1CCN(C(=O)c2cc3ccccc3[nH]2)CC(=O)N(Cc2ccccc2)c2ccccc21 (centres unmarked) [Example 53, 1-benzyl-7-ethyl-4-(2-indolecarbonyl)-2-oxo-2,3,4,5,6,7-hexahydro-1H-1,4-benzodiazonine] | – | Ki (CCKA): 0.631 µM
Cc1cccc(NC(=O)N2CCCc3ccccc3N(CC(=O)OC(C)(C)C)C(=O)C2)c1 [Example 49, 1-tert-butyloxycarbonylmethyl-4-(3-methylphenyl)carbamyl-2-oxo-2,3,4,5,6,7-hexahydro-1H-1,4-benzodiazonine] | 6.31 | –
CC(=O)N1[C@H](CC23CC4CC(CC(C4)C2)C3)C(=O)N(Cc2cccc(C)c2)c2ccccc2C(=O)C[C@H]1C(=O)NCC(=O)O [Example 71, (3R,5S)-4-acetyl-3-(1-adamantyl)methyl-1-(3-methylbenzyl)-5-carboxymethylaninocarbonyl-2,7-dioxo-2,3,4,5,6,7-hexahydro-1H-1,4-benzodiazonine] | 1 | –
CC(=O)N1[C@H](CC23CC4CC(CC(C4)C2)C3)C(=O)N(Cc2ccc(C)cc2)c2ccccc2C(=O)C[C@H]1C(=O)NCC(=O)O [Example 72, (3R,5S)-4-acetyl-3-(1-adamantyl)methyl-1-(4-methylbenzyl)-5-carboxymethylaminocarbonyl-2,7-dioxo-2,3,4,5,6,7-hexahydro-1H-1,4-benzodiazonine] | 0.631 | –
CC(=O)N1[C@H](CC23CC4CC(CC(C4)C2)C3)C(=O)N(Cc2cccc(Cl)c2)c2ccccc2C(=O)C[C@H]1C(=O)NCC(=O)O [Example 62, (3R,5S)-4-acetyl-3-(1-adamantyl)methyl-1-(3-chlorobenzyl)-5-carboxymethylaminocarbonyl-2,7-dioxo-2,3,4,5,6,7-hexahydro-1H-1,4-benzodiazonine] | 0.398 | –

The next lines start with results.

Ki (CCKB receptor) [µM] | Compound | also measured
6.31 | CC1CCN(C(=O)Nc2cc(C(=O)O)cc(C(=O)O)c2)CC(=O)N(Cc2ccccc2)c2ccccc21 (centres unmarked) [Example 47, 1-benzyl-7-methyl-4-(3,5-dicarboxyphenyl)carbamyl-2-oxo-2,3,4,5,6,7-hexahydro-1H-1,4-benzodiazonine] | –
0.158 | CC(=O)N1[C@H](CC23CC4CC(CC(C4)C2)C3)C(=O)N(Cc2ccccc2C)c2ccccc2C(=O)C[C@H]1C(=O)NCC(=O)O [Example 74, (3R,5S)-4-acetyl-3-(1-adamantyl)methyl-1-(2-methylbenzyl)-5-carboxymethylaminocarbonyl-2,7-dioxo-2,3,4,5,6,7-hexahydro-1H-1,4-benzodiazonine] | –
0.126 | COc1ccc2c(c1)C(=O)C[C@@H](C(=O)NCC(=O)O)N(C(C)=O)[C@H](CC13CC4CC(CC(C4)C1)C3)C(=O)N2Cc1ccccc1 (relative stereo) [Example 69, (+/-)-trans-4-acetyl-3-(1-adamantyl)methyl-1-benzyl-5-carboxymethylaminocarbonyl-2,7-dioxo-9-methoxy-2,3,4,5,6,7-hexahydro-1H-1,4-benzodiazonine] | –
0.398 | CC(=O)N1[C@H](CC23CC4CC(CC(C4)C2)C3)C(=O)N(Cc2ccccc2F)c2ccccc2C(=O)C[C@H]1C(=O)NCC(=O)NS(C)(=O)=O [Example 65, (3R,5S)-4-acetyl-3-(1-adamantyl)methyl-1-(2-fluorobenzyl)-5-methanesulphonamidocarboxymethylaminocarbonyl-2,7-dioxo-2,3,4,5,6,7-hexahydro-1H-1,4-benzodiazonine] | –
